Assay results taken from patent publication US20060069132A1, “Azolecarboxamide herbicides” (priority 2004, published 2006).

Key:
[1] = system: large crabgrass; experiment: Test A pre-/postemergence herbicide test; format: in vivo, Digitaria sanguinalis
How it was run: (§1)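 Both application timings were run together: directed soil spray over freshly planted seeds in sandy loam, and runoff spray onto 2–10 cm seedlings. Evaluation after ~10 days in greenhouse used a 0–100 visual scale versus untreated controls.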

[2] = system: barnyardgrass; experiment: Test B flooded paddy test; format: in vivo, Echinochloa crus-galli; conditions: 1000 g ai/ha, scale 0 to 100 (0 no effect, 100 complete control)
How it was run: (§2)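 Treated at 2-leaf (paddy) or 1–4-leaf, 2–18 cm (postemergence); greenhouse 13–15 d; visual score vs control, 0 none to 100 complete control; dash = not tested.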

[3] = system: ducksalad; experiment: Test B flooded paddy test; format: in vivo, Heteranthera limosa; conditions: 1000 g ai/ha, scale 0 to 100 (0 no effect, 100 complete control)
How it was run: as §2

[4] = system: barnyardgrass; experiment: Test C flooded paddy test; format: in vivo, Echinochloa crus-galli
How it was run: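 Injury scored visually against controls on a 0 (no effect) to 100 (complete control) scale, 12 to 14 days after treatment in greenhouse. Flooded paddy plants treated at 2-leaf stage; postemergence plants at 1- to 4-leaf stage, 2 to 18 cm tall.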

[5] = system: giant foxtail; experiment: Test A pre-/postemergence herbicide test; format: in vivo, Setaria faberi
How it was run: as §1

[6] = system: small flower umbrella sedge; experiment: Test B flooded paddy test; format: in vivo, Cyperus difformis; conditions: 1000 g ai/ha, scale 0 to 100 (0 no effect, 100 complete control)
How it was run: as §2

[7] = system: velvetleaf; experiment: Test A pre-/postemergence herbicide test; format: in vivo, Abutilon theophrasti
How it was run: as §1

[8] = system: ducksalad; experiment: Test C flooded paddy test; format: in vivo, Heteranthera limosa
[9] = system: barnyardgrass; experiment: Test A pre-/postemergence herbicide test; format: in vivo, Echinochloa crus-galli
How it was run: as §1

[10] = system: rice; experiment: Test C flooded paddy test; format: in vivo, Oryza sativa
How it was run: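 Plants were grown to the 1- to 4-leaf stage (2–18 cm) and then treated postemergence, or grown to the 2-leaf stage for the flooded paddy test. They were held in a greenhouse for 12 to 14 days and then scored by eye against controls, where 0 is no effect and 100 is complete control.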

[11] = system: smallflower umbrella sedge; experiment: Test C flooded paddy test; format: in vivo, Cyperus difformis
[12] = system: morningglory; experiment: Test A pre-/postemergence herbicide test; format: in vivo, Ipomoea spp.
How it was run: as §1

[13] = system: redroot pigweed; experiment: Test A pre-/postemergence herbicide test; format: in vivo, Amaranthus retroflexus
How it was run: as §1

[14] = system: rice; experiment: Test B flooded paddy test; format: in vivo, Oryza sativa; conditions: 1000 g ai/ha, scale 0 to 100 (0 no effect, 100 complete control)
How it was run: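 Greenhouse test; postemergence application to plants at 1–4 leaves (2–18 cm); paddy species at 2 leaves; evaluated visually vs controls at 13–15 days; scale 0–100 (100 = complete control).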

[15] = Postemergence, 500 g ai/ha, 0 to 100 scale, 0 no effect, 100 complete control
[16] = Postemergence, 2000 g ai/ha, 0 to 100 scale, 0 no effect, 100 complete control
[17] = Preemergence, 2000 g ai/ha, visual rating, 0 to 100 scale (0 no effect, 100 complete control)
[18] = preemergence, 500 g ai/ha, visual injury, 0 to 100 scale (0 no effect, 100 complete control)
[19] = 125 g ai/ha, scale 0 to 100 (0 no effect, 100 complete control)
[20] = 250 g ai/ha, scale of 0 to 100, 0 is no effect, 100 is complete control
[21] = 500 g ai/ha, visual rating after 12 to 14 days, scale 0 to 100 (0 no effect, 100 complete control)

CCOC(=O)c1cncc(NC(=O)c2cc(C(C)(C)C)nn2CC)c1 [Compound 255]
Crabgrass, Large plant response rating [1, 15]: 20
Plant response rating, Crabgrass, Large [1, 16]: 40
Crabgrass, Large plant response rating [1, 17]: 55
Crabgrass, Large plant response rating [1, 18]: 35
Barnyardgrass plant response rating [2]: 70
Ducksalad plant response rating [3]: 80
Barnyardgrass plant response rating ([4]; 62 g ai/ha, scale 0 to 100 (0 no effect, 100 complete control)): 0
Barnyardgrass plant response rating [4, 19]: 10
Barnyardgrass plant response rating [4, 20]: 25
Plant response rating, Barnyardgrass [4, 21]: 35
Foxtail, Giant plant response rating [5, 15]: 30
Plant response rating, Foxtail, Giant [5, 16]: 55
Foxtail, Giant plant response rating [5, 17]: 60
Foxtail, Giant plant response rating [5, 18]: 45
Sedge, Umbrella plant response rating [6]: 80
Velvetleaf plant response rating [7, 15]: 35
Plant response rating, Velvetleaf [7, 16]: 50
Velvetleaf plant response rating [7, 17]: 50
Velvetleaf plant response rating [7, 18]: 30
Ducksalad plant response rating ([8]; 62 g ai/ha, scale 0 to 100): 0
Ducksalad plant response rating [8, 19]: 10
Ducksalad plant response rating [8, 20]: 35
Plant response rating, Ducksalad [8, 21]: 40
Barnyardgrass plant response rating [9, 15]: 40
Plant response rating, Barnyardgrass [9, 16]: 70
Barnyardgrass plant response rating [9, 17]: 75
Barnyardgrass plant response rating [9, 18]: 55
Rice plant response rating ([10]; 62 g ai/ha, scale 0 to 100): 0
Rice plant response rating [10, 19]: 0
Rice plant response rating [10, 20]: 45
Plant response rating, Rice [10, 21]: 50
Sedge, Umbrella plant response rating ([11]; 62 g ai/ha, scale 0 to 100): 0
Sedge, Umbrella plant response rating [11, 19]: 20
Sedge, Umbrella plant response rating [11, 20]: 35
Plant response rating, Sedge, Umbrella [11, 21]: 45
Morningglory plant response rating [12, 15]: 10
Plant response rating, Morningglory [12, 16]: 25
Morningglory plant response rating [12, 17]: 70
Morningglory plant response rating [12, 18]: 30
Pigweed plant response rating [13, 15]: 70
Plant response rating, Pigweed [13, 16]: 100
Pigweed plant response rating [13, 17]: 100
Pigweed plant response rating [13, 18]: 90
Rice plant response rating [14]: 70
